Laboratory results: patent US10709788B2, “Chitosan magnetic particle drug carrier, drug structure, and method of making” (GENE'E TECH CO., LTD., priority 2018, dated 2020)
In brackets after ≈: the same amount, converted by molar mass. Like-named read-outs stand apart in the source and are kept apart here.

Key:
H. pylori [1] = assay: Test of inhibition of H. pylori by drug structure (OD 450 nm, bacterial inhibition rate); format: cell-based; settings: seven strains; added at minimum inhibitory concentration; 37° C., anaerobic, 48 hours
Description: First, bacterial fluids of seven different strains of H. pylori are provided. […] The bacterial fluids of the seven different strains of H. pylori are placed in four 15 ml microcentrifuge tubes, respectively. Each microcentrifuge tube contains 5 ml of H. pylori bacterial fluid. The four microcentrifuge tubes are defined as experimental group 1, experimental group 2, experimental group 3 and control group, respectively. Then, amoxicillin of the minimum inhibitory concentration is added to experimental group 1 of each strain of H. pylori, sample 3 (i.e., drug carrier) of the minimum inhibitory concentration is added to experimental group 2 of each strain of H. pylori, sample C (i.e., drug structure) of amoxicillin of the minimum inhibitory concentration is added to experimental group 3 of each strain of H. pylori, and nothing is added to the control group. Afterward, experimental groups 1-3 and control group of each strain of H. pylori are placed in an incubator to be cultured therein at 37° C., in an anaerobic environment, and for 48 hours. At the end of the 48-hour culturing process, bacterial fluids are extracted from the experimental groups 1-3 and control group of the strains of H. pylori, respectively. OD values of the bacterial fluid of the experimental groups and the bacterial fluid of the control group are measured with a spectrophotometer at a wavelength of 450 nm. […]

H. pylori [2] = assay: minimum inhibitory concentrations (MIC) for seven strains of H. pylori; format: cell-based; settings: Helicobacter pylori, read-out: minimum inhibitory concentration (MIC)

SMILES: CC1(C)S[C@@H]2[C@H](NC(=O)[C@H](N)c3ccc(O)cc3)C(=O)N2[C@H]1C(=O)O [amoxicillin]
- inhibitory effect on H. pylori (H. pylori [1]): different degrees of inhibition efficacy
- MIC (H. pylori [2]; H. pylori strain NO. 125-54): 0.5 µg/mL (≈ 1.37 µM)
- MIC (H. pylori [2]; H. pylori strain NO. 125-56): 0.25 µg/mL (≈ 0.684 µM)
- MIC (H. pylori [2]; H. pylori strain NO. 125-57): 0.25 µg/mL (≈ 0.684 µM)
- MIC (H. pylori [2]; H. pylori strain NO. 126-6): 0.016 µg/mL (≈ 0.0438 µM)
- MIC (H. pylori [2]; H. pylori strain NO. 127-4): 0.0625 µg/mL (≈ 0.171 µM)
- MIC (H. pylori [2]; H. pylori strain NO. 127-9): 0.0625 µg/mL (≈ 0.171 µM)
- MIC (H. pylori [2]; H. pylori strain NO. 127-10): 0.125 µg/mL (≈ 0.342 µM)
